Our source for the Kd and IC50 values is patent US20250136619A1, “HETEROBIFUNCTIONAL COMPOUNDS AND THEIR USE IN TREATING DISEASE” (HALDA THERAPEUTICS OPCO, INC., priority 2021, published 2025).

For orientation: Kd means a measure of binding affinity in units of concentration. The IC50 is the concentration at which inhibition is half-maximal. A lower IC50 goes with inhibition by little substance.

The target in one experiment is BRD4-BD2 (Homo sapiens (Human), UniProt O60885). Kind of experiment: bromoKdELECT assay for binding affinity to BRD4-BD2. As for the experimental part:
(§1) Compounds were tested using a bromoKdELECT assay. T7 phage strains displaying bromodomains were grown in parallel in 24-well blocks in an E. coli host derived from the BL21 strain. E. coli were grown to log-phase and infected with T7 phage from a frozen stock (multiplicity of infection=0.4) and incubated with shaking at 32° C. until lysis (90-150 minutes). The lysates were centrifuged (5,000×g) and filtered (0.2 μm) to remove cell debris. Streptavidin-coated magnetic beads were treated with biotinylated small molecule or acetylated peptide ligands for 30 minutes at room temperature to generate affinity resins for bromodomain assays. The liganded beads were blocked with excess biotin and washed with blocking buffer (SeaBlock (Pierce), 1% BSA, 0.05% Tween 20, 1 mM DTT) to remove unbound ligand and to reduce nonspecific phage binding. Binding reactions were assembled by combining bromodomains, liganded affinity beads, and test compounds in 1×binding buffer (17% SeaBlock, 0.33×PBS, 0.04% Tween 20, 0.02% BSA, 0.004% Sodium azide, 7.4 mM DTT). Test compounds were prepared as 1000X stocks in 100% DMSO. Kds were determined using an 11-point 3-fold compound dilution series with one DMSO control point. All compounds for Kd measurements are distributed by acoustic transfer (non-contact dispensing) in 100% DMSO. The compounds were then diluted directly into the assays such that the final concentration of DMSO was 0.09%. All reactions performed in polypropylene 384-well plates. Each was a final volume of 0.02 ml. The assay plates were incubated at room temperature with shaking for 1 hour and the affinity beads were washed with wash buffer (1×PBS, 0.05% Tween 20). The beads were then resuspended in elution buffer (1×PBS, 0.05% Tween 20, 2 μM non-biotinylated affinity ligand) and incubated at room temperature with shaking for 30 minutes. The bromodomain concentration in the eluates was measured by qPCR.

In a further experiment the target is androgen receptor (Homo sapiens, UniProt P10275). The experiment can be described thus: Radioligand ([3H]methyltrienolone) assay for binding affinity to androgen receptor. To be noted: cell cytosol, 1 nM [3H]methyltrienolone. How it is done: Fractions of cell cytosol ([…]) were incubated for 24 hr at 4° C. with 1 nM [^3H]methyltrienolone in the absence or presence of the test compound in a buffer containing 25 mM Hepes-Tris (pH 7.4), 1 mM EDTA, 10 mM Na2MoO4, 2 mM DTT, 5 μM triamcinolone acetonide, and 10% glycerol. Nonspecific binding was determined in the presence of 1 μM testosterone. Following incubation, the samples were filtered rapidly under vacuum through glass fiber filters (GF/B, Packard) presoaked with 0.3% PEI and rinsed several times with ice-cold 50 mM Tris —HCl using a 96-sample cell harvester (Unifilter, Packard). The filters were dried then counted for radioactivity in a scintillation counter (Topcount, Packard) using a scintillation cocktail (Microscint 0, Packard). The results are expressed as a percent inhibition of the control radioligand specific binding. The standard reference compound is testosterone, which is tested in each experiment at several concentrations to obtain a competition curve from which its IC50 is calculated.

A further experiment deals with BRD4-BD1 (Homo sapiens (Human), UniProt O60885). Kind of experiment: bromoKdELECT assay for binding affinity to BRD4-BD1. As for the experimental part: as §1
The target of the next experiment is PLK1 (Homo sapiens (Human), UniProt P53350). The experiment can be described thus: KdELECT assay for binding affinity to PLK1. As for the experimental part:
Compounds were tested using a KdELECT assay. Kinase-tagged T7 phage strains were prepared in an E. coli host derived from the BL21 strain. E. coli were grown to log-phase and infected with T7 phage and incubated with shaking at 32° C. until lysis. The lysates were centrifuged and filtered to remove cell debris. The remaining kinases were produced in HEK-293 cells and subsequently tagged with DNA for qPCR detection. Streptavidin-coated magnetic beads were treated with biotinylated small molecule ligands for 30 minutes at room temperature to generate affinity resins for kinase assays. The liganded beads were blocked with excess biotin and washed with blocking buffer (SeaBlock (Pierce), 1% BSA, 0.05% Tween 20, 1 mM DTT) to remove unbound ligand and to reduce non-specific binding. Binding reactions were assembled by combining kinases, liganded affinity beads, and test compounds in 1×binding buffer (20% SeaBlock, 0.17×PBS, 0.05% Tween 20, 6 mM DTT). Test compounds were prepared as 111X stocks in 100% DMSO. Kd values were determined using an 11-point 3-fold compound dilution series with three DMSO control points. All compounds for Kd measurements are distributed by acoustic transfer (non-contact dispensing) in 100% DMSO.
The compounds were then diluted directly into the assays such that the final concentration of DMSO was 0.9%. […] The kinase concentration in the eluates was measured by qPCR.

The next experiment deals with KIF11 (Homo sapiens (Human), UniProt P52732). Kind of experiment: Enzyme-coupled ATPase assay for inhibition of KIF11. It is filed as biochemical. To be noted: KIF11 ATPase rate, 1 mM ATP. As for the experimental part: The ATPase rate for Kif11 was monitored using an enzyme-coupled assay. Porcine brain microtubules (Cat #MT002) were purchased from Cytoskeleton (Denver, CO) and polymerized as per manufacturer's instructions and stored at 1 mg/ml at −80° C. GST-tagged Kif11/Eg5 (Cat #EG01-XL) and the Kinesin ELIPA Biochem Kit (Cat #BK060) was also purchased from Cytoskeleton. Taxol, microtubules, 7-methylthioguanosine (MESG), and purine nucleoside phosphorylase (PNP) were added to final concentrations of […], 0.05 mg/mL, […], 1U/m, 1 mM in EPLIA Reaction Buffer and allowed to incubate at room temperature for 15 minutes under rocking. Kif11 was then added at a final concentration of […] and allowed to incubate at room temperature for an additional 15 minutes. Master mix ([…]) was added to a black 384-well plate (Corning 3575), to which […] of DMSO or compound were added to appropriate wells. Plates were incubated at room temperature for 2 hours. ATPase reactions were initiated by addition of 1 mM ATP and monitored by OD340 every 1 minute over the course of 2 hours. The rate of the reaction was taken from the linear part of the resulting curve. IC50 was determined by plotting inhibitor concentration v. ATPase rate.

A further experiment has as its target BTK (Homo sapiens (Human), UniProt Q06187). The experiment can be described thus: KdELECT assay for binding affinity to BTK. The procedure, abridged: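 Competition binding of test compound against bead-immobilized biotinylated ligand; kinase as T7 phage fusion or HEK-293-expressed DNA-tagged protein. 11-point 3-fold dilution, 0.9% DMSO final, 1 h room temperature with shaking. Bound kinase eluted with 0.5 μM non-biotinylated ligand and quantified by qPCR; Kd derived.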

Chain of KIF11 (P52732 1-368): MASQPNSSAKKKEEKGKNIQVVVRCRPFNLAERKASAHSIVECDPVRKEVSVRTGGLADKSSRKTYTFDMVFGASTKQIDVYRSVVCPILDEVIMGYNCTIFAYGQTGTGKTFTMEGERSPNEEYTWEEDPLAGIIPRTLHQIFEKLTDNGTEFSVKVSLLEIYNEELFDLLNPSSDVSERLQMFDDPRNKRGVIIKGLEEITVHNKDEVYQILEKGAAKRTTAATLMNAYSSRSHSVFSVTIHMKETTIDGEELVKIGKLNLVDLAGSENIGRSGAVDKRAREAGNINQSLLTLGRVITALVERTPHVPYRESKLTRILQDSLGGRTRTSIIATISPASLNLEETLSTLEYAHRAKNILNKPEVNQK
Chain of BTK (Q06187 whole entry, the tested form may be a part): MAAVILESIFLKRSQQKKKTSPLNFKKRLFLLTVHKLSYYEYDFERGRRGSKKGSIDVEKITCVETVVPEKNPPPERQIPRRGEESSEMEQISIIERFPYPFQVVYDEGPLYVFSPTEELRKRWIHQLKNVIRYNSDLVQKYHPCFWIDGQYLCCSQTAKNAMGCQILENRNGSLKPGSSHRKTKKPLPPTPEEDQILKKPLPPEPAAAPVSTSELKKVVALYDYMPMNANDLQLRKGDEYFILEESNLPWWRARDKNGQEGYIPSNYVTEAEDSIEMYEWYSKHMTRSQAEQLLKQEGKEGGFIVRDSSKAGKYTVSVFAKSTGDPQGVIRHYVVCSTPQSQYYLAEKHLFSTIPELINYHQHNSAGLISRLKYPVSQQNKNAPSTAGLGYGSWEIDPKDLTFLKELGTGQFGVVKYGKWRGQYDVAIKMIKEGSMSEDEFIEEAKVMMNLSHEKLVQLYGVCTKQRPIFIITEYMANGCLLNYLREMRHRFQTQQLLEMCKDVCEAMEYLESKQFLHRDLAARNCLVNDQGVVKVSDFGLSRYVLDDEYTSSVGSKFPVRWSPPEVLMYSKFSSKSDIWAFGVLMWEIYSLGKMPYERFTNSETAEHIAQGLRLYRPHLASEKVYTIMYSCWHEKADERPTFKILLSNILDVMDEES
Chain of androgen receptor (P10275 whole entry, looked up): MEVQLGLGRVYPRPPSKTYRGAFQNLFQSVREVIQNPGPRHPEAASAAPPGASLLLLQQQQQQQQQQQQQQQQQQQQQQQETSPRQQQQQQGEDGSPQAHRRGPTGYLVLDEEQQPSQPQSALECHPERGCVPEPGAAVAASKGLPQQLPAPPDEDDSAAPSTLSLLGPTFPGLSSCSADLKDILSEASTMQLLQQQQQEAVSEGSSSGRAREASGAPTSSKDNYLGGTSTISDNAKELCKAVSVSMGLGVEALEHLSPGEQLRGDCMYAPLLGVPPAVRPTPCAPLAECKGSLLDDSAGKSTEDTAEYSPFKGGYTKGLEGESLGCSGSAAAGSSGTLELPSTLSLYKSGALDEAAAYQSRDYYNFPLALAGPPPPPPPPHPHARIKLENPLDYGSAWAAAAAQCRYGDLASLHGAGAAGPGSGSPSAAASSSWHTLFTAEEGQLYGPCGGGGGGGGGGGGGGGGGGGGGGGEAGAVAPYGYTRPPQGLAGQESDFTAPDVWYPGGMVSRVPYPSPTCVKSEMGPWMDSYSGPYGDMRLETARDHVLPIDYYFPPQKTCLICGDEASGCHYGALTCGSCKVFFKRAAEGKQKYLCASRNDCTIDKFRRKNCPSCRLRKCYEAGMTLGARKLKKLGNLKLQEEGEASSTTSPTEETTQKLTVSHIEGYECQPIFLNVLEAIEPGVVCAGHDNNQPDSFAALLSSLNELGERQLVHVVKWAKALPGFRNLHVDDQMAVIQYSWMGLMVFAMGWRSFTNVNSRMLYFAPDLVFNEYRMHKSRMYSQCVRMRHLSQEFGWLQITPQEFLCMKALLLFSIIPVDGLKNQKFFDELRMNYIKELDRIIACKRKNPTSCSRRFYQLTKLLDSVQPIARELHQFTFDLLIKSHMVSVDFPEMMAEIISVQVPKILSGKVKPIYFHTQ
Chain of PLK1 (P53350 whole entry): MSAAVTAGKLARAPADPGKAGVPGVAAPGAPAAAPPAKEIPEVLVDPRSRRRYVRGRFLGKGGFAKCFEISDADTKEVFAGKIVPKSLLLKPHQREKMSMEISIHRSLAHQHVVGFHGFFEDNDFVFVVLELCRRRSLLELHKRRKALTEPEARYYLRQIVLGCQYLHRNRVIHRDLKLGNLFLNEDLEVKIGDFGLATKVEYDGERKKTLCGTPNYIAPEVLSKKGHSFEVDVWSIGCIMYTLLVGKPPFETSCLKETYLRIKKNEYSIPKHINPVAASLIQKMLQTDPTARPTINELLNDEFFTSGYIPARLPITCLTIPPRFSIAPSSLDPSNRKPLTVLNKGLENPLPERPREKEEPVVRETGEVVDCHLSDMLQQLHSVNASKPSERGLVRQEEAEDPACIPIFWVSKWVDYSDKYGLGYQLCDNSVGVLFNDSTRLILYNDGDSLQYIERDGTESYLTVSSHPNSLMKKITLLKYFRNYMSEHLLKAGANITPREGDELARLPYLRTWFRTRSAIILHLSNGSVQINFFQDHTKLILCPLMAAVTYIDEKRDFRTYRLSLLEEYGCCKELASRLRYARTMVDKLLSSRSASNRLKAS

As for `Cc1sc2c(c1C)C(c1ccc(Cl)cc1)=N[C@@H](CC(=O)NCCOCCOCCOCCOCCOCCOCCOc1ccc(C(=O)NC3C(C)(C)C(Oc4ccc(C#N)c(Cl)c4)C3(C)C)cc1)c1nnc(C)n1-2` (stereo partly shown) [Compound I-34], the Kd on BRD4-BD2 is 50 to 500 nM; at androgen receptor it was below 50 nM; on BRD4-BD1, 50 to 500 nM.

At PLK1, `CCC1C(=O)N(C)c2cnc(Nc3ccc(C(=O)NCCN(C)C(=O)CO[C@H]4CC[C@H]5[C@@H]6CC[C@H]7CC(=O)CC[C@]7(C)[C@H]6CC[C@]45C)cc3OC)nc2N1C1CCCC1` (stereo partly shown) [Compound I-41] yielded a Kd below 50 nM.

Compound `CN(C/C=C/C(=O)N1CCC[C@@H](n2nc(-c3ccc(Oc4ccccc4)cc3)c3c(N)ncnc32)C1)CCOCCOCCOCCOCCON(C)C(=O)N1N=C(c2cc(F)ccc2F)SC1(CCCN)c1ccccc1` (stereo partly shown) [Compound I-50] returned an IC50 against KIF11 below 50 nM.

As to `CN(C/C=C/C(=O)N1CCC[C@@H](n2nc(-c3ccc(Oc4ccccc4)cc3)c3c(N)ncnc32)C1)CCOCCOCCOCCOCCOCCOCCON(C)C(=O)N1N=C(c2cc(F)ccc2F)SC1(CCCN)c1ccccc1` (stereo partly shown) [Compound I-52], the 50% inhibitory concentration (IC50) against KIF11 is below 50 nM. Moreover, the Kd at BTK is below 50 nM.

Turning to `CN(OCCOCCOCCOCCOCCOCCOCCOCCOCCOC/C=C/C(=O)N1CCC[C@@H](n2nc(-c3ccc(Oc4ccccc4)cc3)c3c(N)ncnc32)C1)C(=O)N1N=C(c2cc(F)ccc2F)SC1(CCCN)c1ccccc1` (stereo partly shown) [Compound I-53], the half-inhibitory concentration (IC50) on KIF11 lay within 50 to 500 nM. The compound further showed a Kd on BTK below 50 nM.

`CN(C/C=C/C(=O)N1CCC[C@@H](n2nc(-c3ccc(Oc4ccccc4)cc3)c3c(N)ncnc32)C1)CCOCCOCCOCCOCCOCCOCCOCCOCCON(C)C(=O)N1N=C(c2cc(F)ccc2F)SC1(CCCN)c1ccccc1` (stereo partly shown) [Compound I-54] registered an IC50 against KIF11 below 50 nM.
